From ChEMBL document CHEMBL4888484, “Replenishing the malaria drug discovery pipeline: Screening and hit evaluation of the MMV Hit Generation Library 1 (HGL1) against asexual blood stage Plasmodium falciparum ,using a nano luciferase reporter read-out” (2022)

Columns and labels:
Plasmodium falciparum [1] = assay: Hit confirmation in dose-response curve in NF54 nanoGlo assay, at 72h; format: functional, organism-based, Erythrocyte; design: timepoint 72 hour; details: Plasmodium falciparum, NF54, Erythrocyte, 72 h
Plasmodium falciparum [2] = assay: Hit confirmation in dose-response curve in NF54 pLDH assay, at 72h; format: functional, organism-based; design: timepoint 72 hour; details: NF54, Erythrocyte
Plasmodium falciparum [3] = assay: Hit confirmation in dose-response curve in Dd2 pLDH assay, at 72h; format: functional, organism-based; design: timepoint 72 hour; details: Dd2, Erythrocyte
Plasmodium falciparum [4] = assay: Hit confirmation in dose-response curve in NF54 nanoGlo assay, at 12h; format: functional, organism-based, Erythrocyte; design: timepoint 12 hour; details: Plasmodium falciparum, NF54, Erythrocyte, 12 h
[5] = Hit confirmation in dose-response curve in HepG2 cytotoxicity assay, at 72h; format: toxicity, cell-based; design: timepoint 72 hour; details: human, HepG2 cells

Compound	IC50 (Plasmodium falciparum [1])	IC50 (Plasmodium falciparum [2])	IC50 (Plasmodium falciparum [3])	IC50 (Plasmodium falciparum [4])	IC50 at 72 h [5]
O=C(NCc1ccccc1F)C1CCN(c2cncnc2N2CCCC2)CC1	3.55 µM	> 10 µM	7.24 µM	8.71 µM	> 10 µM
Cc1noc(NCc2ccc(Cl)cc2)n1	3.8 µM	8.13 µM	2.88 µM	> 10 µM	> 10 µM
CCc1ccc(C(=O)Nc2cnc(-n3ccnc3)nc2)cc1	5.01 µM	3.55 µM	6.31 µM	> 10 µM	> 10 µM
Cc1nc2cc(NC(=O)[C@@]3(C)CCCN(C(=O)c4ccccc4)C3)ccc2o1	1.58 µM	> 10 µM	> 10 µM	0.525 µM	> 10 µM
O=C(Nc1nc2cccc(Cl)c2o1)c1cccc(F)c1	1.32 µM	2 µM	2.51 µM	> 10 µM	> 10 µM
Cc1oc(-c2ccn[nH]2)cc1S(=O)(=O)Nc1cccc(Cl)c1	1.48 µM	7.76 µM	> 10 µM	0.933 µM	> 10 µM
COc1ccccc1Cn1cnc2c1c(=O)n(C1CCCCC1)c(=O)n2-c1ccccc1Cl	1.41 µM	3.98 µM	3.16 µM	> 10 µM	> 10 µM
Cc1c(F)cccc1NC(=O)N1CCN(C2=CC3=N[C@@H](C)CN3C=N2)CC1	3.63 µM	2.69 µM	4.07 µM	> 10 µM	> 10 µM
CCc1nc2cc(N3CCC(C(=O)Nc4ccc5c(c4)OCO5)CC3)cnc2nc1CC	1.29 µM	> 10 µM	> 10 µM	0.417 µM	> 10 µM
CC1CC(Nc2ncnc3cc(Br)ccc23)CCN1C (stereo not given)	1.05 µM	1.58 µM	1.07 µM	1.55 µM	> 10 µM
Cc1noc(Cl)c1CC(=O)N1CCCC(C)(C)CC1	2.29 µM	5.62 µM	4.07 µM	7.94 µM	> 10 µM
CC(C)O[C@@H]1CCN(C[C@H](O)c2ccc(C(F)(F)F)cc2)C1	2.09 µM	3.09 µM	2.82 µM	3.31 µM	> 10 µM
CCCc1cc(-c2nc(-c3ccc(-n4nc(C)cc4N)cc3)no2)n(C)n1	0.871 µM	1.82 µM	1.86 µM	> 10 µM	> 10 µM
CCCn1ccnc1-c1cn(Cc2cc3ccccc3[nH]2)nn1	2.82 µM	5.37 µM	4.79 µM	> 10 µM	> 10 µM
CCC(CC)c1cc([C@H]2CN3CC[C@H]2C[C@@H]3CNS(=O)(=O)Cc2ccccc2)nc(-c2ccncc2)n1	2.04 µM	4.37 µM	3.89 µM	3.89 µM	> 10 µM
CC[C@H]1CN2C=NC(N3CCN(C(=O)Nc4cc(F)cc(F)c4)CC3)=CC2=N1	2.82 µM	1.26 µM	3.39 µM	> 10 µM	> 10 µM
CC12CN(S(=O)(=O)c3ccc4c(c3)OCCO4)C3(C(=O)OCc4ccccc4)CC1CCC23C (stereo not given)	2.82 µM	3.8 µM	3.24 µM	> 10 µM	> 10 µM

Compound	IC50 (Plasmodium falciparum [1])	IC50 (Plasmodium falciparum [2])	IC50 (Plasmodium falciparum [3])	IC50 (Plasmodium falciparum [4])	IC50 at 72 h [5]
CC(=O)c1cccc(NC(=O)[C@@]23CCC(=O)N2c2ccccc2C(=O)N3C)c1	1.91 µM	5.89 µM	2.82 µM	3.09 µM	> 10 µM
CCN(CC)c1ccc(C(=O)Nc2ccc3nc(N4CCCC4)cc(C)c3c2)cc1	2 µM	3.63 µM	3.63 µM	4.27 µM	> 10 µM
O=C(Nc1[nH]c(=O)ncc1F)c1cc(F)c(F)cc1Br	0.00191 µM	0.00166 µM	> 10 µM	0.501 µM	> 10 µM
CCn1cc(-c2nc(-c3ccccc3C)no2)c(=O)c2cc(F)c(N3CCOCC3)cc21	3.55 µM	7.08 µM	4.9 µM	> 10 µM	> 10 µM
Cc1nc(C(=O)Nc2[nH]c(=O)ncc2F)c(-c2ccccc2)o1	0.00832 µM	0.0126 µM	> 10 µM	9.55 µM	> 10 µM
CC[n+]1ccc(-c2ncc(-c3ccc(C(C)(C)C)cc3)o2)cc1	0.589 µM	0.182 µM	0.417 µM	> 10 µM	> 10 µM
COc1cc(C(=O)Nc2[nH]c(=O)ncc2F)ccc1Cl	0.00589 µM	0.01 µM	> 10 µM	7.76 µM	> 10 µM
Oc1ccc2cc(CN3CCC[C@H](CN4CCCC4)C3)ccc2c1	1.2 µM	1.74 µM	2.63 µM	2.45 µM	> 10 µM
CC(C)(C)[C@H]1CCc2c(sc(NC(=O)C3(F)C(F)(F)C(F)(F)C(F)(F)C(F)(F)C3(F)F)c2C#N)C1	2.19 µM	2.95 µM	2.57 µM	5.75 µM	4.57 µM
Cn1c(=O)c2c(-c3ccc(Cl)cc3)n(-c3cccc4cccc(N)c34)cc2n(C)c1=O	> 10 µM	0.0182 µM	> 10 µM	> 10 µM	> 10 µM
CC(C)c1cccc(Nc2nc3ccncc3n(C(C)C)c2=O)c1	1.66 µM	2.82 µM	2.09 µM	3.31 µM	> 10 µM
FC(F)Oc1ccc(-c2c[n+](-c3cccc(C(F)(F)F)c3)c3n2CCCCC3)cc1	2.45 µM	2.14 µM	8.91 µM	> 10 µM	> 10 µM
Cc1cc(-c2cc(O)cc(CC[C@H]3CCCCN3)c2)ccn1	0.501 µM	0.269 µM	0.269 µM	2.95 µM	> 10 µM
Cc1ccc(C)c(-n2cnc(=O)n2[C@H]2CCN(C3CC3)C2=O)c1	2.95 µM	8.32 µM	5.75 µM	> 10 µM	> 10 µM
CCNC(=O)c1csc(COc2ccc3c(c2)[C@H](c2ccc(C)cc2)N(C(=O)CC(C)C)CC3)n1	3.55 µM	7.76 µM	4.47 µM	9.77 µM	> 10 µM
O=S(=O)(c1ccc(F)c(Cl)c1)N1CC[C@H](Oc2ccncc2Cl)C1	1.86 µM	7.59 µM	2.69 µM	3.24 µM	> 10 µM

The next lines start with results.

IC50 (Plasmodium falciparum [1])	IC50 (Plasmodium falciparum [2])	IC50 (Plasmodium falciparum [3])	IC50 (Plasmodium falciparum [4])	Compound	IC50 at 72 h [5]
1.38 µM	2.63 µM	1.45 µM	2.88 µM	Cc1cc(N2CC(OCc3ccccc3)C2)nc(Nc2cccc(O)c2)n1	> 10 µM
1.02 µM	2.57 µM	2.75 µM	1.51 µM	CCC(C)NCC(O)Cn1c(-c2ccccc2)c(-c2ccccc2)c2cc(C)ccc21 (stereo not given)	> 10 µM
9.12 µM	> 10 µM	> 10 µM	> 10 µM	O=C(CCn1c(=O)[nH]c2ccsc2c1=O)NCc1ccccc1	> 10 µM
2.29 µM	4.9 µM	3.89 µM	3.24 µM	COc1ccc(C(=O)N(C(=O)c2ccc(OC)cc2)c2c3c(nc4ccccc24)CCCC3)cc1	> 10 µM
2.14 µM	2.4 µM	2.09 µM	> 10 µM	COc1ccc(-[n+]2c(-c3ccc(-c4ccccc4)cc3)cn3c2COCC3)cc1	> 10 µM
1.66 µM	8.13 µM	3.24 µM	3.47 µM	Cc1c(C)c2ccc(NC(=O)c3cc4ccccc4o3)cc2[nH]c1=O	> 10 µM
3.09 µM	4.07 µM	3.55 µM	6.61 µM	N#Cc1c(-c2ccccc2)cc(-c2ccccc2)nc1S(=O)(=O)Cc1ccccc1	> 10 µM
1.86 µM	6.92 µM	4.68 µM	3.09 µM	CCOc1cc(C(c2c(C)n(C)n(-c3ccccc3)c2=O)c2c(C)n(C)n(-c3ccccc3)c2=O)ccc1OCc1ccccc1	> 10 µM
0.871 µM	4.47 µM	1.58 µM	> 10 µM	O=C1c2ccccc2C(c2ccc(NC(=O)c3cccc4ccccc34)cc2)(c2ccc(NC(=O)c3cccc4ccccc34)cc2)c2ccccc21	> 10 µM
0.759 µM	2.82 µM	1.86 µM	4.07 µM	O=c1nc2n(nc1-c1ccccc1)C1(CCC1)Nc1ccccc1-2	> 10 µM
3.02 µM	> 10 µM	> 10 µM	4.79 µM	COc1ccc(-c2cc3n(n2)C[C@@](C)(C(=O)NCc2ccccc2OC)N(c2cccc(OC)c2)C3=O)cc1	> 10 µM
3.63 µM	10 µM	4.9 µM	> 10 µM	COc1cccc(CC(=O)N2CCc3nc(N4CCC(C)CC4)nc(Oc4ccccc4OC)c3C2)c1	> 10 µM
3.02 µM	10.7 µM	6.76 µM	2.95 µM	CCc1cccc(NC(=O)N2CCC3(CC2)C(=O)N(CC(=O)Nc2ccc(F)cc2)CN3c2ccccc2)c1	> 10 µM
2.45 µM	9.33 µM	5.62 µM	1.48 µM	COc1ccc([C@H](NC(=O)CCc2ccccc2)c2c(O)ccc3ccccc23)cc1	> 10 µM
9.77 µM	10 µM	9.12 µM	> 10 µM	COc1cccc2c(=O)c3c([nH]c12)CCN(CC(=O)NCc1ccccc1Cl)C3	> 10 µM
2.29 µM	2.95 µM	3.16 µM	4.17 µM	O=C(NC1=NN2C(=NC(c3ccc(Cl)cc3)=C[C@H]2c2ccc(F)cc2)N1)c1ccc(Cl)cc1	> 10 µM
